Data from US20080269291A1, “Chemical Compounds” (priority 2005, published 2008).

Target: T1, Recombinant human IKKβ (residues 1-737) (Homo sapiens, UniProt O14920)
T1 construct: Recombinant human IKKβ (residues 1-737); GST (C); made in house
T1 sequence (O14920 1-737): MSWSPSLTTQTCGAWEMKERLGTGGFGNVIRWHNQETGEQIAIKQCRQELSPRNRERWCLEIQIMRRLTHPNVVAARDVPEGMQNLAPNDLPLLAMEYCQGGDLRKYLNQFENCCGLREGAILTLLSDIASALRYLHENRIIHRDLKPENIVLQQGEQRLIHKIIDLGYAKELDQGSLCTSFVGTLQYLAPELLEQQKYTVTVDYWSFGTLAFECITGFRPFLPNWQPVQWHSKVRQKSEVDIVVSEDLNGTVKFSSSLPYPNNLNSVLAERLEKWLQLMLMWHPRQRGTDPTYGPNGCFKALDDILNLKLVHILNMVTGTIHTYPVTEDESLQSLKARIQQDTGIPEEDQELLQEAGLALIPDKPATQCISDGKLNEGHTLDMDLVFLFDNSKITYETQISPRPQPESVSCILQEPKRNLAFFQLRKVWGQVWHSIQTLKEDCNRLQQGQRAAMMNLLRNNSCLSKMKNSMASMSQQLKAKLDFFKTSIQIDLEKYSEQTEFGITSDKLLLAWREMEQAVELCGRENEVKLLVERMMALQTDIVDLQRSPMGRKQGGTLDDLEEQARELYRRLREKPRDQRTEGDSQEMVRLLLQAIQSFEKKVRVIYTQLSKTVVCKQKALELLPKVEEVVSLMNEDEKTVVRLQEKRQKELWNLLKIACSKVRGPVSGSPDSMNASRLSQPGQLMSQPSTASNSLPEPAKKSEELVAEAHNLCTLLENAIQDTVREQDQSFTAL
Experiment: IKK2 Assay (TR-FRET)
Format: biochemical
Details: activity against IKK2, IKK2 5 nM, GST-IκBα substrate 25 nM, ATP 1 μM, 30 minutes at room temperature
Procedure: Recombinant human IKKβ (residues 1-737) was expressed in baculovirus as a C-terminal GST-tagged fusion protein, and its activity was assessed using a time-resolved fluorescence resonance energy transfer (TR-FRET) assay. Briefly, IKK2 (5 nM final) diluted in assay buffer (50 mM HEPES, 10 mM MgCl2, 1 mM CHAPS pH 7.4 with 1 mM DTT and 0.01% w/v BSA) was added to wells containing various concentrations of compound or DMSO vehicle (3% final). The reaction was initiated by the addition of GST-IκBα substrate (25 nM final)/ATP (1 μM final), in a total volume of 30 μL. The reaction was incubated for 30 minutes at room temperature, then terminated by the addition of 15 μL of 50 mM EDTA. Detection reagent (15 μl) in buffer (100 mM HEPES pH 7.4, 150 mM NaCl and 0.1% w/v BSA) containing antiphosphoserine-licBa-32/36 monoclonal antibody 12C2 (Cell Signalling Technology, Beverly Mass., USA) labelled with W-1024 europium chelate (Wallac OY, Turku, Finland), and an APC-labelled anti-GST antibody (Prozyme, San Leandro, Calif., USA) was added and the reaction was further incubated for 60 minutes at room temperature. The degree of phosphorylation of GST-IκBα was measured using a Packard Discovery plate reader (Perkin-Elmer Life Sciences, Pangbourne, UK) as a ratio of specific 665 nm energy transfer signal to reference europium 620 nm signal.

IC50: 25.1 µM
Structure (SMILES): CCS(=O)(=O)N1CCC(c2c[nH]c3c(C(N)=O)cc(S(=O)(=O)c4ccc(C)cc4)cc23)CC1 [Example 48, 3-[1-(ethylsulfonyl)-4-piperidinyl]-5-[(4-methylphenyl)sulfonyl]-1H-indole-7-carboxamide]
